Test results published in publication PMC6812009, “Covalent Aurora A regulation by the metabolic integrator coenzyme A” (Redox Biology, 2019).

Experiments:
Assay in all cases: Kinase profiling screen (radioactive filter-binding assay)
Assay type in all cases: biochemical
MLK3 = MLK3 (Homo sapiens, UniProt Q16584); details: 100 μM compound, 20 μM ATP; read-out: Kinase activity, % of activity in the absence of inhibitor
Method in brief: (§1)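 Residual kinase activity is read in duplicate wells containing 100 μM final test compound (CoA, dpCoA or ADP). Recombinant kinases use model substrates at ATP levels optimal for each enzyme, across a 117-kinase screen.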

NEK2α = target: T1, NEK2α (Homo sapiens, UniProt P51955); details: 100 μM compound, 50 μM ATP; read-out: Kinase activity, % of activity in the absence of inhibitor
T1 sequence (P51955 1-445): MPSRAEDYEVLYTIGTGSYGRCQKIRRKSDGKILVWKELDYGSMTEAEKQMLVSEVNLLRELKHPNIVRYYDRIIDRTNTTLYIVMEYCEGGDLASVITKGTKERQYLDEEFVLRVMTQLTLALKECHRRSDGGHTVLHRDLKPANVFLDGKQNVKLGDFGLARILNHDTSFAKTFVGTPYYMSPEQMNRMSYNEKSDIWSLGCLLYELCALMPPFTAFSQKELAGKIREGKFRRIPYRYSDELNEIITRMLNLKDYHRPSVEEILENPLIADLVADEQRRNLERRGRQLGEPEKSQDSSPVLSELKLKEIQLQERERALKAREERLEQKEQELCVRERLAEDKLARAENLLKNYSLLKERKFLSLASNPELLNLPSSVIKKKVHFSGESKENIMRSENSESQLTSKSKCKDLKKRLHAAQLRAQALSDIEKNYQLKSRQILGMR
Method in brief: as §1

MSK1 = MSK1 (Homo sapiens, UniProt O75582); details: 100 μM compound, 20 μM ATP; read-out: Kinase activity, % of activity in the absence of inhibitor
Chain of MSK1 (O75582 whole entry): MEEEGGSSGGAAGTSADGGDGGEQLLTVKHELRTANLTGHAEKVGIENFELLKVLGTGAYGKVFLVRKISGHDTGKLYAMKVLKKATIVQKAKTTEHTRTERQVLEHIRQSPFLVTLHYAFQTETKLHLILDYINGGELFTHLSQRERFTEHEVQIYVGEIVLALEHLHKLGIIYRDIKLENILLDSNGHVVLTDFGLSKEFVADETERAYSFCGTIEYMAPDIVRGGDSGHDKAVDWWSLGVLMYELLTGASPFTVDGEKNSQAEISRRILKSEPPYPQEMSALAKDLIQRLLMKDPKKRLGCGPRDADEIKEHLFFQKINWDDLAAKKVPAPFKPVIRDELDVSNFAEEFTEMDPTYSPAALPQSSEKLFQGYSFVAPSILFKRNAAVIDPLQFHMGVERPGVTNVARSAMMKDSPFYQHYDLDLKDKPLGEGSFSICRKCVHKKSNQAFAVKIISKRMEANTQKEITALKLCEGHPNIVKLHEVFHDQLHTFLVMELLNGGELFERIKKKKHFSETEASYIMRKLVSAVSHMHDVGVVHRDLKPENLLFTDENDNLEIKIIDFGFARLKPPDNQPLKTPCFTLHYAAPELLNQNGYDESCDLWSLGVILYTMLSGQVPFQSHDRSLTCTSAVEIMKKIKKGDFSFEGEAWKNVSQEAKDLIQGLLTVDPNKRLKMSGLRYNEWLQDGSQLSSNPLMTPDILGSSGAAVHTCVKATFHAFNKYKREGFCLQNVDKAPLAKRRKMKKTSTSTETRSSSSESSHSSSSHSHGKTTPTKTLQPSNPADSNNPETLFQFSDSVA
Method in brief: as §1

Aurora A = target: T2, Aurora A (Homo sapiens, UniProt O14965); details: for activity at 100 µM: 100 μM compound, 5 μM ATP, read-out: Kinase activity, % of activity in the absence of inhibitor
T2 sequence (O14965 1-403): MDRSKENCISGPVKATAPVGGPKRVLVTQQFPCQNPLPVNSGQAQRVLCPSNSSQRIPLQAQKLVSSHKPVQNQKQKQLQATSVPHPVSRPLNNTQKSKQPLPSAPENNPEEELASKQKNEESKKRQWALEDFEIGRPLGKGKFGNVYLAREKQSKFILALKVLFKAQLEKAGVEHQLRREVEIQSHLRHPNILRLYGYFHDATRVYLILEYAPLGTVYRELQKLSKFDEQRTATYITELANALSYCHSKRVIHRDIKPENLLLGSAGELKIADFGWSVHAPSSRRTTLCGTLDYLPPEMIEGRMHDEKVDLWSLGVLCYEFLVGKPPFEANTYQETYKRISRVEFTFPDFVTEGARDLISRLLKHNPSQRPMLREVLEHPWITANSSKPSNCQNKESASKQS
Method in brief: as §1

BRSK2 = target: T3, BRSK2 (Homo sapiens, UniProt Q8IWQ3); details: 100 μM compound, 50 μM ATP; read-out: Kinase activity, % of activity in the absence of inhibitor
T3 sequence (Q8IWQ3 1-736): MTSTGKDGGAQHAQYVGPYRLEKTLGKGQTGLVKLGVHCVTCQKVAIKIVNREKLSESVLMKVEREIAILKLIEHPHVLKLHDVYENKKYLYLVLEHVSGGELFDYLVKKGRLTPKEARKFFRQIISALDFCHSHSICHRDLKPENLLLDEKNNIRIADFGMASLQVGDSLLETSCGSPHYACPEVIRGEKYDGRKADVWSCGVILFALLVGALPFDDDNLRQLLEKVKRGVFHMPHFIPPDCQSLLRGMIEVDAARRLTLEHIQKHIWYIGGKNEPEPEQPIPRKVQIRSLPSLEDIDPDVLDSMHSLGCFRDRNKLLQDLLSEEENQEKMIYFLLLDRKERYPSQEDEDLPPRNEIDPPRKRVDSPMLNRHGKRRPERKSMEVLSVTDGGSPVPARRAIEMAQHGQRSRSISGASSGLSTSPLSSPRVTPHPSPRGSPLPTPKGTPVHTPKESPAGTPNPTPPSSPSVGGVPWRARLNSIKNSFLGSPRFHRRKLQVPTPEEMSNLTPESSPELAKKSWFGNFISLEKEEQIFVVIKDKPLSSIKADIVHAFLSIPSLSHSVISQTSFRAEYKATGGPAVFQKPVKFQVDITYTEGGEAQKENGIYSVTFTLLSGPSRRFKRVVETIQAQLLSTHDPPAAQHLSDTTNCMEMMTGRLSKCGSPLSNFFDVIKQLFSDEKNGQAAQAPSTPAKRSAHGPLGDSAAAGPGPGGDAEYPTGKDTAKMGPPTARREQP
Method in brief: as §1

MARK3 = MARK3 (Homo sapiens, UniProt P27448); details: 100 μM compound, 5 μM ATP; read-out: Kinase activity, % of activity in the absence of inhibitor
Chain of MARK3 (P27448 whole entry): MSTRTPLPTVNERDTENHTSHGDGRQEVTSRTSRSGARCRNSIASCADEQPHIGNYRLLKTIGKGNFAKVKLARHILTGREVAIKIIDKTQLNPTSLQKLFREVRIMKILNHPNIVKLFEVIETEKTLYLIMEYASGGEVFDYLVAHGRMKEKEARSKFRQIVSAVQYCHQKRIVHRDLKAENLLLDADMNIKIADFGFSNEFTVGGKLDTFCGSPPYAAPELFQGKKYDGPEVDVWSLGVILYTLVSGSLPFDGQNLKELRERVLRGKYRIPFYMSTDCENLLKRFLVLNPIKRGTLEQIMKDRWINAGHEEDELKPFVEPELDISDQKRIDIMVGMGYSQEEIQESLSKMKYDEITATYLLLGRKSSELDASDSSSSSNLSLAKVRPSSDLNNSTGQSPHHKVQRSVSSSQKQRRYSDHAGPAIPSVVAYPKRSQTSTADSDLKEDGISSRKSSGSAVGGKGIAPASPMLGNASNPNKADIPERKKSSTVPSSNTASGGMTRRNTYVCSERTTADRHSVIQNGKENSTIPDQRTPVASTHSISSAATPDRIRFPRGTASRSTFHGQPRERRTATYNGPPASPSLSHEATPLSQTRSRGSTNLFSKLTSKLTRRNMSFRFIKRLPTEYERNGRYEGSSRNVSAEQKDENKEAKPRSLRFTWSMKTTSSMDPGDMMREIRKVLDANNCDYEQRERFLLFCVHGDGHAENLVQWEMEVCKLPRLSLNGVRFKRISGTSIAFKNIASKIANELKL
Method in brief: as §1

IRAK4 = target: T4, IRAK4 (Homo sapiens, UniProt Q9NWZ3); details: 100 μM compound, 20 μM ATP; read-out: Kinase activity, % of activity in the absence of inhibitor
T4 sequence (Q9NWZ3 1-460): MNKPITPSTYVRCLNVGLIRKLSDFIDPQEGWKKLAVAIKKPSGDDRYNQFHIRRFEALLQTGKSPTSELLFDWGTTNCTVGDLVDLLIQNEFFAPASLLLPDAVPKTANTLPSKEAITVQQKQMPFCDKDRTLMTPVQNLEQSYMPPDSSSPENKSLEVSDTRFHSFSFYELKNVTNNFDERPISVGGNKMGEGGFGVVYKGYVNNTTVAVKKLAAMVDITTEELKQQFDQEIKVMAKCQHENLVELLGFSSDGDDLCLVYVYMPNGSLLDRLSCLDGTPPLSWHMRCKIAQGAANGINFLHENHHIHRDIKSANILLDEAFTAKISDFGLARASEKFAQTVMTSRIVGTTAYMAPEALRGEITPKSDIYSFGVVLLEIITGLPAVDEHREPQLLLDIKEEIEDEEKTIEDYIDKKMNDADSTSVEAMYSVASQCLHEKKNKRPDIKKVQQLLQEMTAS
Method in brief: as §1

EPH-A4 = EPH-A4 (Homo sapiens, UniProt P54764); details: 100 μM compound, 50 μM ATP; read-out: Kinase activity, % of activity in the absence of inhibitor
Chain of EPH-A4 (P54764 20-986): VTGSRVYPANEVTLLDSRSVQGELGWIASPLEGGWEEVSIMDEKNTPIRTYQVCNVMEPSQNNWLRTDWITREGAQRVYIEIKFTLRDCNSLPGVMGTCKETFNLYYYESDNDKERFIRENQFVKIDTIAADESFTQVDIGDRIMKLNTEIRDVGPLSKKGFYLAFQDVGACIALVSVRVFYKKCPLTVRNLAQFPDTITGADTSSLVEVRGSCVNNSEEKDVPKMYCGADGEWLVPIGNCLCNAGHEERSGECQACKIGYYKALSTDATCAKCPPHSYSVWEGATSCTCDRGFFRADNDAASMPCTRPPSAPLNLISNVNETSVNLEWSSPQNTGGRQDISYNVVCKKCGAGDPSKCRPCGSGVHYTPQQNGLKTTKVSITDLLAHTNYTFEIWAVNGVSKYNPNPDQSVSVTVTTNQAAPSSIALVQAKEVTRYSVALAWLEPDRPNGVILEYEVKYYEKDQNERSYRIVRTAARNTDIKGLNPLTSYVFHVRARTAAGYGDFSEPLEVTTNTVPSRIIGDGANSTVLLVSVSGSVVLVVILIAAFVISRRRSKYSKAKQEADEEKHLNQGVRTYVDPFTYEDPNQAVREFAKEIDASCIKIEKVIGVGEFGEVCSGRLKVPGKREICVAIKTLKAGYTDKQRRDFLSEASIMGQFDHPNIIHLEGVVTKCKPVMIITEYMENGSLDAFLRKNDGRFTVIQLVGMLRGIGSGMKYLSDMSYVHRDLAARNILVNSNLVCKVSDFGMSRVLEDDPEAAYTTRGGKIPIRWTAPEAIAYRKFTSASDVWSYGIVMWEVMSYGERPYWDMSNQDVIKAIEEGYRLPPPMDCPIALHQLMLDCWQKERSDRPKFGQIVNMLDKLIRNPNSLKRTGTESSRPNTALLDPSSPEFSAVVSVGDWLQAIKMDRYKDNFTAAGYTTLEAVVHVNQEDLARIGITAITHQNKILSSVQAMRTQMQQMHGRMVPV
Method in brief: as §1

MAPKAP-K3 = MAPKAP-K3 (Homo sapiens, UniProt Q16644); details: 100 μM compound, 20 μM ATP; read-out: Kinase activity, % of activity in the absence of inhibitor
Chain of MAPKAP-K3 (Q16644 whole entry): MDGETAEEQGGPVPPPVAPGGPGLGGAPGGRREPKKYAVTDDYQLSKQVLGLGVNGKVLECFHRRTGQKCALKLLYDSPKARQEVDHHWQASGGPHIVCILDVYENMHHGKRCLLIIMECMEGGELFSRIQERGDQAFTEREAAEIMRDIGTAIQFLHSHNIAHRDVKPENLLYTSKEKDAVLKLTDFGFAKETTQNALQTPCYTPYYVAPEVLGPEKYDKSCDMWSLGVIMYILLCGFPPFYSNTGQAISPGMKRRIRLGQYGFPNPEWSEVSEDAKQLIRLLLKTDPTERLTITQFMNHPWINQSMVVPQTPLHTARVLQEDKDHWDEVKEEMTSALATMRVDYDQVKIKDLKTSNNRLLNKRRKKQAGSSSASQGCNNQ
Method in brief: as §1

MKK2 = MKK2 (Homo sapiens, UniProt P36507); details: 100 μM compound, 5 μM ATP; read-out: Kinase activity, % of activity in the absence of inhibitor
Chain of MKK2 (P36507 whole entry): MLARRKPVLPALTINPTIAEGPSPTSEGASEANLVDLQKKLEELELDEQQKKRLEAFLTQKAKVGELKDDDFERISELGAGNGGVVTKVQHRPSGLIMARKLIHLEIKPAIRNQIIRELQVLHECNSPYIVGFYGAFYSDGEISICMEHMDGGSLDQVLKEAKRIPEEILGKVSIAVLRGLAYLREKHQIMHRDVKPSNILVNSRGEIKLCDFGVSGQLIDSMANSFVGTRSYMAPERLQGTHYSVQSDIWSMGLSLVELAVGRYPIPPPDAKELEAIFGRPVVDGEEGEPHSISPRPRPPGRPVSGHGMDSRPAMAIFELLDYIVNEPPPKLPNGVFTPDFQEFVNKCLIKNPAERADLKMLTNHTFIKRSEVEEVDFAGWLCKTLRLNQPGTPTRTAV
Method in brief: as §1

DAPK1 = DAPK1 (Homo sapiens, UniProt P53355); details: 100 μM compound, 5 μM ATP; read-out: Kinase activity, % of activity in the absence of inhibitor
Chain of DAPK1 (P53355 whole entry): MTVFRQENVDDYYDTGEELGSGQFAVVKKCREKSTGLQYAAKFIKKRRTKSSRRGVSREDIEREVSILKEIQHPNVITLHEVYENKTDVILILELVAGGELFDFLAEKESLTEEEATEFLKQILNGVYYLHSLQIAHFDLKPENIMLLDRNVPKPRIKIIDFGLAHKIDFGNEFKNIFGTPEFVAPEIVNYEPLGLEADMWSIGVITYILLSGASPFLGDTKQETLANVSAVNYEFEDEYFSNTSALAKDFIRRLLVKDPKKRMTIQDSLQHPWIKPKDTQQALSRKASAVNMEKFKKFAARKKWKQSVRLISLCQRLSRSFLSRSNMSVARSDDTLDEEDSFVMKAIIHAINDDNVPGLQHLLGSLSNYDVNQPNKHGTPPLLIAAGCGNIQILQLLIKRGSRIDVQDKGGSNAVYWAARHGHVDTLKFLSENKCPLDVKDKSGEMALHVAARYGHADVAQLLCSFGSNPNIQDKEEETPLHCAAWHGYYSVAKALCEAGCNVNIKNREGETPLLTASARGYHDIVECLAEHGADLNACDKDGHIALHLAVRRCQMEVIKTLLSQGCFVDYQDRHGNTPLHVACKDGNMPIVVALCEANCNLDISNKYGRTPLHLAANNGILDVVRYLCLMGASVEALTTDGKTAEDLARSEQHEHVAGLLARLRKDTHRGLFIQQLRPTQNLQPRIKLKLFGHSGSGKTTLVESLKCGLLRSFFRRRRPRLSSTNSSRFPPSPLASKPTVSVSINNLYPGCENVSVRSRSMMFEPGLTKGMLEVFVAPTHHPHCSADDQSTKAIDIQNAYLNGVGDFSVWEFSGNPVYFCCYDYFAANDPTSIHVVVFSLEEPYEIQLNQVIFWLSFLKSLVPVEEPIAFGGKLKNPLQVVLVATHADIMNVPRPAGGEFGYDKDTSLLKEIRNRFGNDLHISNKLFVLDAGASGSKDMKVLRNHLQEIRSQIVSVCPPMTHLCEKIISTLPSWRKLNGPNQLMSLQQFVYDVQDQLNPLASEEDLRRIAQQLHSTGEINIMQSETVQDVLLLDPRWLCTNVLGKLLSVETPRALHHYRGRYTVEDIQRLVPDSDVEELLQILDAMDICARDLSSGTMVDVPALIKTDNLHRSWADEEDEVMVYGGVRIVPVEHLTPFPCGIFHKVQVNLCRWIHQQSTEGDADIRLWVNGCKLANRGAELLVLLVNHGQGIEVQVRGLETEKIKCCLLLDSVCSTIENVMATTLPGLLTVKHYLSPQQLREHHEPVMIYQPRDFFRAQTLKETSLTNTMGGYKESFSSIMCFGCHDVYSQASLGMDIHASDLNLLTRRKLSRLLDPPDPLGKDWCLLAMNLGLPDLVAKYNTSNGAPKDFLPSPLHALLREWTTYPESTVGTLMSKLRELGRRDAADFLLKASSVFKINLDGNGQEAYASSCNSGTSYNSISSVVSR
Method in brief: as §1

## CC(C)(COP(=O)(O)OP(=O)(O)OC[C@H]1O[C@@H](n2cnc3c(N)ncnc32)[C@H](O)[C@@H]1OP(=O)(O)O)[C@@H](O)C(=O)NCCC(=O)NCCS [CoA, Coenzyme A]
MLK3
  activity at 100 µM: 70.2%
NEK2α
  activity at 100 µM: 148%
MSK1
  activity at 100 µM: 106%
Aurora A
  activity at 100 µM: 13.4%
Aurora A; at 100 μM, n = 3
  inhibition at 100 µM: 87%
BRSK2
  activity at 100 µM: 115%
MARK3
  activity at 100 µM: 88.9%
IRAK4
  activity at 100 µM: 89.1%
EPH-A4
  activity at 100 µM: 115%
MAPKAP-K3
  activity at 100 µM: 98.4%
MKK2
  activity at 100 µM: 103%
DAPK1
  activity at 100 µM: 106%

## Nc1ncnc2c1ncn2C1OC(COP(=O)(O)OP(=O)(O)O)C(O)C1O (stereo not shown) [ADP]
MLK3
  activity at 100 µM: 46.8%
NEK2α
  activity at 100 µM: 42.1%
MSK1
  activity at 100 µM: 53.3%
Aurora A
  activity at 100 µM: 38%
BRSK2
  activity at 100 µM: 52.4%
MARK3
  activity at 100 µM: 14.8%
IRAK4
  activity at 100 µM: 82.1%
EPH-A4
  activity at 100 µM: 32.5%
MAPKAP-K3
  activity at 100 µM: 25.7%
MKK2
  activity at 100 µM: 35.4%
DAPK1
  activity at 100 µM: 10.3%

## CC(C)(COP(=O)(O)OP(=O)(O)OCC1OC(n2cnc3c(N)ncnc32)C(O)C1O)C(O)C(=O)NCCC(=O)NCCS (stereo not shown) [dpCoA, dephospho-CoA]
MLK3
  activity at 100 µM: 61.9%
NEK2α
  activity at 100 µM: 100%
MSK1
  activity at 100 µM: 70.5%
Aurora A
  activity at 100 µM: 29.9%
BRSK2
  activity at 100 µM: 88.8%
MARK3
  activity at 100 µM: 46.2%
IRAK4
  activity at 100 µM: 74.8%
EPH-A4
  activity at 100 µM: 75.6%
MAPKAP-K3
  activity at 100 µM: 63%
MKK2
  activity at 100 µM: 53%
DAPK1
  activity at 100 µM: 64.4%
